According to patent US20130344026A1, “Dimeric Smac Mimetics” (priority 2009, published 2013):
Like-named read-outs stand apart in the source and are kept apart here.

Tested on: HCC461
Experiment: cell viability assay in HCC461, compound alone
Format: cell-based
[1] = HCC461, HCC461, Tables 6-9, read-out: IC50 (μM) in cell viability assay in HCC461
[2] = HCC461, HCC461, Tables 15-18, read-out: IC50 (uM) in cell viability assay in HCC461
[3] = HCC461, HCC461 cells, compound alone, read-out: IC50 (uM) in cell viability assay in HCC461
[4] = HCC461, Tables 15-18, read-out: IC50 (uM) in cell viability assay in HCC461

Compound | IC50 [3] | IC50 [2] | further results
CN[C@@H](C)C(=O)N[C@H](C(=O)N[C@@H](CCCCNC(=O)c1cccc(C(=O)N[C@H]2CC(C(=O)N[C@H](C)c3ccccc3)N(C(=O)[C@@H](NC(=O)[C@H](C)NC)C(C)(C)C)C2)c1)C(=O)N[C@@H](C)C(C)C)C(C)C (some centres unmarked) [Compound 162] |  |  | IC50 [1]: > 30 µM
CN[C@@H](C)C(=O)N[C@H](C(=O)N1C[C@@H](NC(=O)c2cccc(C(=O)N[C@H]3C[C@@H](C(=O)N[C@@H]4CCCc5ccccc54)N(C(=O)[C@@H](NC(=O)[C@H](C)NC)C(C)(C)C)C3)c2)C[C@H]1C(=O)N[C@H](C)C(C)C)C(C)C [Compound 133] |  |  | IC50 [1]: 0.016 µM
CN[C@@H](C)C(=O)N[C@@H](CCNC(=O)c1cc(C(=O)NCC[C@H](NC(=O)[C@H](C)NC)C(=O)N2CCC[C@H]2C(=O)N[C@@H]2CCCc3ccccc32)[nH]n1)C(=O)N1CCC[C@H]1C(=O)N[C@@H]1CCCc2ccccc21 [Compound P2-28] |  | 0.163 µM | 
CN[C@@H](C)C(=O)N[C@H](C(=O)N1CCC[C@H]1C(=O)N[C@H](CNC(=O)c1ccc(C(=O)NC[C@@H](NC(=O)[C@@H]2CCCN2C(=O)[C@@H](NC(=O)[C@H](C)NC)C(C)(C)C)c2ccccc2)cc1)c1ccccc1)C(C)(C)C [Compound P4-12] |  | 0.038 µM | 
CN[C@@H](C)C(=O)N[C@@H](CCCCCC[C@H](NC(=O)[C@H](C)NC)C(=O)N1C[C@@H](NC(=O)c2ccccc2)C[C@H]1C(=O)N[C@@H]1CCCc2ccccc21)C(=O)N1C[C@@H](NC(=O)c2ccccc2)C[C@H]1C(=O)N[C@@H]1CCCc2ccccc21 [Compound P2-13] |  |  | IC50 [4]: 0.168 µM
CN[C@@H](C)C(=O)N[C@H](C(=O)N1C[C@@H](NC(=O)c2cccc(C(=O)NCC[C@@H](NC(=O)[C@H](NC(=O)[C@@H](C)NC)C(C)C)C(=O)N[C@@H](C)C(C)C)c2)C[C@H]1C(=O)N[C@@H]1CCCc2ccccc21)C(C)(C)C [Compound 138] |  |  | IC50 [1]: > 30 µM
C[C@H](NC(=O)OCc1ccc([N+](=O)[O-])cc1)C(=O)NC(C(=O)N1C[C@@H](NC(=O)c2cccc(C(=O)N[C@H]3C[C@@H](C(=O)N[C@@H]4CCCc5ccccc54)N(C(=O)[C@@H](NC(=O)[C@H](C)NC(=O)OCc4ccc([N+](=O)[O-])cc4)C(C)(C)C)C3)c2)CC1C(=O)N[C@@H]1CCCc2ccccc21)C(C)(C)C (some centres unmarked) [Compound 111] |  |  | IC50 (HCC461, Tables 6-9, read-out: IC50 (μM) in cell viability assay in HCC461): > 30 µM
CN[C@@H](C)C(=O)N[C@@H](CC#CC#CC[C@H](NC(=O)[C@H](C)NC)C(=O)N1CSC[C@H]1C(=O)N[C@@H]1CCCc2ccccc21)C(=O)N1CSC[C@H]1C(=O)N[C@@H]1CCCc2ccccc21 [Compound 88] |  |  | IC50 [1]: 0.188 µM
CN[C@@H](C)C(=O)N[C@H](C(=O)N1C[C@@H](NC(=O)c2cccc(C(=O)N[C@H]3C[C@@H](C(=O)NC4CCCC5CCCCC54)N(C(=O)[C@@H](NC(=O)[C@H](C)NC)C(C)(C)C)C3)c2)C[C@H]1C(=O)NC1CCCC2CCCCC21)C(C)(C)C (some centres unmarked) [Compound P3-57] |  |  | IC50 (HCC461 cells, compound alone, read-out: IC50 (uM) in cell viability assay in HCC461): 1.69 µM
CN[C@@H](C)C(=O)N[C@@H](CCCCNC(=O)c1cccc(C(=O)NCCCC[C@H](NC(=O)[C@H](C)NC)C(=O)N2CCC[C@H]2C(=O)NC(c2ccccc2)c2ccccc2)c1)C(=O)N1CCC[C@H]1C(=O)NC(c1ccccc1)c1ccccc1 [Compound P2-29] |  | 0.324 µM | 
CN[C@@H](C)C(=O)N[C@@H](CCCCNC(=O)c1cc(N)cc(C(=O)NCCCC[C@H](NC(=O)[C@H](C)NC)C(=O)N2CCC[C@H]2C(=O)N[C@@H]2CCCc3ccccc32)c1)C(=O)N1CCC[C@H]1C(=O)N[C@@H]1CCCc2ccccc21 [Compound P2-24] |  | 0.121 µM | 
CN[C@@H](C)C(=O)N[C@@H](CCCCNC(=O)c1cc(C(=O)NCCCC[C@H](NC(=O)[C@H](C)NC)C(=O)N2CCC[C@H]2C(=O)NC(c2ccccc2)c2ccccc2)[nH]n1)C(=O)N1CCC[C@H]1C(=O)NC(c1ccccc1)c1ccccc1 [Compound P2-31] |  | 0.268 µM | 
CN[C@@H](C)C(=O)N[C@H](C(=O)N1C[C@@H](NC(=O)CC[C@@H](NC(=O)[C@H](NC(=O)[C@@H](C)NC)C(C)C)C(=O)N[C@@H](C)C(C)C)C[C@H]1C(=O)N[C@@H]1CCCc2ccccc21)C(C)(C)C [Compound 158] |  |  | IC50 [1]: > 30 µM
CN[C@@H](C)C(=O)N[C@H](C(=O)N1CCC[C@H]1C(=O)N[C@H](CNC(=O)C1CCCCC1C(=O)NC[C@@H](NC(=O)[C@@H]1CCCN1C(=O)[C@@H](NC(=O)[C@H](C)NC)C(C)(C)C)C1CCCCC1)C1CCCCC1)C(C)(C)C (single isomer, unassigned) [Compound P4-2] |  |  | IC50 [4]: 0.12 µM
CN[C@@H](C)C(=O)N[C@@H](CCCCNC(=O)c1cccc(C(=O)NCCCC[C@H](NC(=O)[C@H](C)NC)C(=O)N2CCCC[C@H]2C(=O)N[C@@H]2CCCc3ccccc32)c1)C(=O)N1CCCC[C@H]1C(=O)N[C@@H]1CCCc2ccccc21 [Compound 142] |  |  | IC50 [1]: > 30 µM
CN[C@@H](C)C(=O)N[C@H](C(=O)N1CCC[C@H]1C(=O)N[C@H](CNC(=O)c1cccc(C(=O)NC[C@@H](NC(=O)[C@@H]2CCCN2C(=O)[C@@H](NC(=O)[C@H](C)NC)C2CCCCC2)C2CCCCC2)c1)C1CCCCC1)C1CCCCC1 [Compound P4-16] |  | 0.13 µM | 
CN[C@@H](C)C(=O)N[C@H](C(=O)N1CCC[C@H]1C(=O)N[C@H](CNC(=O)c1cc(N)cc(C(=O)NC[C@@H](NC(=O)[C@@H]2CCCN2C(=O)[C@@H](NC(=O)[C@H](C)NC)C(C)(C)C)C2CCCCC2)c1)C1CCCCC1)C(C)(C)C [Compound P4-9] |  | 0.53 µM | 
CN[C@@H](C)C(=O)N[C@@H](CCCCNC(=O)c1cccc(C(=O)N[C@H]2CCN(C(=O)[C@@H](NC(=O)[C@H](C)NC)C(C)(C)C)C2)c1)C(=O)N1CCC[C@H]1C(=O)N[C@@H]1CCCc2ccccc21 [Compound 135] |  |  | IC50 [1]: 12.1 µM
C[C@@H](C(=O)N[C@@H](CC#CC#CC[C@H](NC(=O)[C@H](C)N(C)C(=O)C(F)(F)F)C(=O)N1CCC[C@H]1C(=O)N[C@@H]1CCCc2ccccc21)C(=O)N1CCC[C@H]1C(=O)N[C@@H]1CCCc2ccccc21)N(C)C(=O)C(F)(F)F [Compound P2-18] |  | 0.031 µM | 
CN[C@@H](C)C(=O)N[C@H](C(=O)N1C[C@@H](NC(=O)c2cccc(C(=O)N[C@H]3C[C@@H](C(=O)N[C@@H]4CCCc5ccccc54)N(C(=O)[C@@H](NC(=O)[C@H](C)NC)C(C)(C)C)C3)n2)C[C@H]1C(=O)N[C@@H]1CCCc2ccccc21)C(C)(C)C [Compound P3-10] | 0.046 µM |  | 
CN[C@@H](C)C(=O)N[C@@H](CCCCCC[C@H](NC(=O)[C@H](C)NC)C(=O)N1C[C@@H](NS(=O)(=O)c2ccccc2)C[C@H]1C(=O)N[C@@H]1CCCc2ccccc21)C(=O)N1C[C@@H](NS(=O)(=O)c2ccccc2)C[C@H]1C(=O)N[C@@H]1CCCc2ccccc21 [Compound P2-14] |  | 0.092 µM | 
CCN[C@@H](C)C(=O)C[C@H](C(=O)N1CCC[C@H]1C(=O)N[C@@H]1CCCc2ccccc21)c1ccc(C#CCO[C@H](C)[C@H](NC(=O)[C@H](C)NC)C(=O)N2CCC[C@H]2C(=O)N[C@@H]2CCCc3ccccc32)cc1 [Compound H-1] |  | 0.0171 µM | 

Second part, led by results:

IC50 [3] | Compound | IC50 [2] | further results
0.028 µM | CN[C@@H](C)C(=O)N[C@H](C(=O)N1C[C@@H](n2cc(CCCc3cn([C@H]4C[C@@H](C(=O)N[C@H](C)c5ccccc5)N(C(=O)[C@@H](NC(=O)[C@H](C)NC)C(C)(C)C)C4)nn3)nn2)C[C@H]1C(=O)N[C@H](C)c1ccccc1)C(C)(C)C [Compound P3-87] |  | 
0.181 µM | CN[C@@H](C)C(=O)N[C@H](C(=O)N1C[C@@H](NC(=O)c2cccc(C(=O)N[C@H]3C[C@@H](C(=O)Nc4cccc5c4CCCC5)N(C(=O)[C@@H](NC(=O)[C@H](C)NC)C(C)(C)C)C3)c2)C[C@H]1C(=O)Nc1cccc2c1CCCC2)C(C)(C)C [Compound P3-45] |  | 
0.035 µM | CN[C@@H](C)C(=O)N[C@H](C(=O)N1C[C@@H](NC(=O)c2cc(N)cc(C(=O)N[C@H]3C[C@@H](C(=O)NCc4ccc(F)cc4)N(C(=O)[C@@H](NC(=O)[C@H](C)NC)C(C)(C)C)C3)c2)C[C@H]1C(=O)NCc1ccc(F)cc1)C(C)(C)C [Compound P3-71] |  | 
0.196 µM | CN[C@@H](C)C(=O)N[C@H](C(=O)N1C[C@@H](NC(=O)c2cccc(C(=O)N[C@H]3C[C@@H](C(=O)N[C@H](C)C(C)C)N(C(=O)[C@@H](NC(=O)[C@H](C)NC)C(C)(C)C)C3)c2)C[C@H]1C(=O)N[C@H](C)C(C)C)C(C)(C)C [Compound P3-83] |  | 
0.028 µM | CN[C@@H](C)C(=O)N[C@H](C(=O)N1C[C@@H](NC(=O)c2cnc(C(=O)N[C@H]3C[C@@H](C(=O)N[C@@H]4CCCc5ccccc54)N(C(=O)[C@@H](NC(=O)[C@H](C)NC)C(C)(C)C)C3)cn2)C[C@H]1C(=O)N[C@@H]1CCCc2ccccc21)C(C)(C)C [Compound P3-13] |  | 
0.006 µM | CN[C@@H](C)C(=O)N[C@H](C(=O)N1C[C@@H](NC(=O)C/C=C/CC(=O)N[C@H]2C[C@@H](C(=O)N[C@@H]3CCCc4ccccc43)N(C(=O)[C@@H](NC(=O)[C@H](C)NC)C(C)(C)C)C2)C[C@H]1C(=O)N[C@@H]1CCCc2ccccc21)C(C)(C)C [Compound P3-32] |  | 
0.008 µM | CN[C@@H](C)C(=O)N[C@H](C(=O)N1C[C@@H](NC(=O)c2cc(C(=O)N[C@H]3C[C@@H](C(=O)NC(c4ccccc4)c4ccccc4)N(C(=O)[C@@H](NC(=O)[C@H](C)NC)C(C)(C)C)C3)[nH]n2)C[C@H]1C(=O)NC(c1ccccc1)c1ccccc1)C(C)(C)C [Compound P3-64] |  | 
0.002 µM | CN[C@@H](C)C(=O)N[C@H](C(=O)N1C[C@@H](NC(=O)[C@H]2CC[C@H](C(=O)N[C@H]3C[C@@H](C(=O)N[C@@H]4CCCc5ccccc54)N(C(=O)[C@@H](NC(=O)[C@H](C)NC)C(C)(C)C)C3)CC2)C[C@H]1C(=O)N[C@@H]1CCCc2ccccc21)C(C)(C)C [Compound P3-31] |  | 
0.025 µM | CC[C@H](C)C(NC(=O)[C@H](C)NC)C(=O)N1C[C@@H](NC(=O)c2cccc(C(=O)N[C@H]3C[C@@H](C(=O)N(C)[C@H](C)c4ccccc4)N(C(=O)C(NC(=O)[C@H](C)NC)[C@@H](C)CC)C3)c2)C[C@H]1C(=O)N(C)C(C)c1ccccc1 (some centres unmarked) [Compound P3-68] |  | 
0.007 µM | CN[C@@H](C)C(=O)N[C@H](C(=O)N1C[C@@H](Oc2cccc(O[C@H]3C[C@@H](C(=O)NC4CCCc5ccccc54)N(C(=O)[C@@H](NC(=O)[C@H](C)NC)C(C)(C)C)C3)c2)C[C@H]1C(=O)NC1CCCc2ccccc21)C(C)(C)C (some centres unmarked) [Compound P3-25] |  | 
